Consider 16 compounds from US5075440A, “Novel pyrido[2,3-f](1,4)thiazepines and pyrido[3,2-b](1,5)benzothiazepines” (Ortho Pharmaceutical Corporation, priority 1990, dated 1991).

Values joined by “and” are separate entries in the source; they are usually repeats but may differ in a detail not shown here. Equal values may be shown once.

Test [1] deals with trachealis muscle tissue. Nature of the test: Inhibition of calcium dependent smooth muscle contraction, trachea (P#176 Trach). Also noted: species or system dog. To be noted: 50 mM KCl contraction. On the procedure:
(§1) The test for inhibition of calcium dependent smooth muscle contraction is determined according to the following procedure:
(§2) The trachea and the aorta from dogs sacrificed by excess KCl injection are stored overnight at 4° C. in oxygenated Krebs-Henseleit buffer. Tracheal rings, one cartilage segment wide (5-10 mm), are cut starting from the bronchial end. Rings of aorta tissue of the same width are also prepared. After cutting the cartilage, the trachealis muscle tissue and the aorta tissue are suspended in oxygenated Krebs-Henseleit buffer at 37° C. in a 25 ml tissue bath. After a 60-minute equilibration period, the tissues are challenged with 10 μM carbachol. After 5 minutes, the tissues are rinsed and allowed to rest 50 minutes. The tissues are then challenged with 50 mM KCl and, after 30 minutes, the contractions are quantitated. The tissues are then rinsed and reequilibrated for 50 minutes. Test compounds are then added for 10 minutes, and the tissue is rechallenged with 50 mM KCl. After 30 minutes, the contraction is recorded and used to determine the % inhibition of control.
(§3) The percent inhibition of smooth muscle contraction is calculated from response data before and after drug treatment. [formula]

Test [2] concerns aorta tissue. Nature of the test: Inhibition of calcium dependent smooth muscle contraction, aorta (P#176 Aorta). Also noted: species or system dog. To be noted: 50 mM KCl contraction. On the procedure: as §1, §2, §3
The target of test [3] is T1, Calcium Channel (3H-nitrendipine binding, heart membranes) (Oryctolagus cuniculus, UniProt P15381).
T1 construct: the heart is immediately removed, cleaned and chopped into small pieces; The tissue is homogenized; from tissue; host or cells: heart membranes of female New Zealand white rabbits (42,000×g pellet)
The test is described as follows: Inhibition of 3H-nitrendipine binding (P#166 Nit. Binding). Also noted: species or system rabbit. To be noted: for IC50: rabbit heart membranes, 3H-nitrendipine 0.05-0.50 nM. The protocol: The assay for inhibition of nitrendipine binding is performed using the following procedure:
Female, New Zealand white rabbits (1-2 kg) are sacrificed by cervical dislocation, and the heart is immediately removed, cleaned and chopped into small pieces. The tissue is homogenized in 5×volume of 0.05M Hepes buffer, pH 7.4. The homogenate is centrifuged at 4000×g for 10 minutes, and the supernatant is recentrifuged at 42,000×g for 90 minutes. The resulting membrane pellet is resuspended (0.7 ml/g weight) in 0.05M Hepes, pH 7.4 and stored at […] until used. Each tube of the binding assay contains ^3 H-nitrendipine (0.05-0.50 nM), buffer, membranes (0.10 ml), and test compound in a total volume of 1.0 ml. After 90 minutes at 4° C., the bound nitrendipine is separated from the unbound by filtration on Whatman GF/C filters. After rinsing, the filters are dried and counted in a liquid scintillation counter.
Non-specific binding of ^3 H-nitrendipine (that amount bound in the presence of excess unlabelled nitrendipine) is subtracted from the total bound to obtain specifically bound radiolabeled nitrendipine. The amount of specifically bound nitrendipine in the presence of a test compound is compared to that amount bound in the absence of a compound. A percent displacement (or inhibition) can then be obtained.

Setting [4] is: Canis lupus familiaris, read-out: P#176 Trach % INHB/μM.
The mark [5] stands for this setting: Canis lupus familiaris, 0.1 μM, read-out: P#176 Aorta % INHB/μM.
Where [6] appears, read: Canis lupus familiaris, 1.0 μM, read-out: P#176 Aorta % INHB/μM.
[7] abbreviates: Canis lupus familiaris, 2.0 μM, read-out: P#176 Trach % INHB/μM.
The mark [8] stands for this setting: Canis lupus familiaris, read-out: P#176 Aorta % INHB/μM.
Setting [9] is: Canis lupus familiaris, 0.1 μM, read-out: P#176 Trach % INHB/μM.
Where [10] appears, read: Canis lupus familiaris, 0.01 μM, read-out: P#176 Aorta % INHB/μM.

T1 sequence (P15381 whole entry, other chains not shown): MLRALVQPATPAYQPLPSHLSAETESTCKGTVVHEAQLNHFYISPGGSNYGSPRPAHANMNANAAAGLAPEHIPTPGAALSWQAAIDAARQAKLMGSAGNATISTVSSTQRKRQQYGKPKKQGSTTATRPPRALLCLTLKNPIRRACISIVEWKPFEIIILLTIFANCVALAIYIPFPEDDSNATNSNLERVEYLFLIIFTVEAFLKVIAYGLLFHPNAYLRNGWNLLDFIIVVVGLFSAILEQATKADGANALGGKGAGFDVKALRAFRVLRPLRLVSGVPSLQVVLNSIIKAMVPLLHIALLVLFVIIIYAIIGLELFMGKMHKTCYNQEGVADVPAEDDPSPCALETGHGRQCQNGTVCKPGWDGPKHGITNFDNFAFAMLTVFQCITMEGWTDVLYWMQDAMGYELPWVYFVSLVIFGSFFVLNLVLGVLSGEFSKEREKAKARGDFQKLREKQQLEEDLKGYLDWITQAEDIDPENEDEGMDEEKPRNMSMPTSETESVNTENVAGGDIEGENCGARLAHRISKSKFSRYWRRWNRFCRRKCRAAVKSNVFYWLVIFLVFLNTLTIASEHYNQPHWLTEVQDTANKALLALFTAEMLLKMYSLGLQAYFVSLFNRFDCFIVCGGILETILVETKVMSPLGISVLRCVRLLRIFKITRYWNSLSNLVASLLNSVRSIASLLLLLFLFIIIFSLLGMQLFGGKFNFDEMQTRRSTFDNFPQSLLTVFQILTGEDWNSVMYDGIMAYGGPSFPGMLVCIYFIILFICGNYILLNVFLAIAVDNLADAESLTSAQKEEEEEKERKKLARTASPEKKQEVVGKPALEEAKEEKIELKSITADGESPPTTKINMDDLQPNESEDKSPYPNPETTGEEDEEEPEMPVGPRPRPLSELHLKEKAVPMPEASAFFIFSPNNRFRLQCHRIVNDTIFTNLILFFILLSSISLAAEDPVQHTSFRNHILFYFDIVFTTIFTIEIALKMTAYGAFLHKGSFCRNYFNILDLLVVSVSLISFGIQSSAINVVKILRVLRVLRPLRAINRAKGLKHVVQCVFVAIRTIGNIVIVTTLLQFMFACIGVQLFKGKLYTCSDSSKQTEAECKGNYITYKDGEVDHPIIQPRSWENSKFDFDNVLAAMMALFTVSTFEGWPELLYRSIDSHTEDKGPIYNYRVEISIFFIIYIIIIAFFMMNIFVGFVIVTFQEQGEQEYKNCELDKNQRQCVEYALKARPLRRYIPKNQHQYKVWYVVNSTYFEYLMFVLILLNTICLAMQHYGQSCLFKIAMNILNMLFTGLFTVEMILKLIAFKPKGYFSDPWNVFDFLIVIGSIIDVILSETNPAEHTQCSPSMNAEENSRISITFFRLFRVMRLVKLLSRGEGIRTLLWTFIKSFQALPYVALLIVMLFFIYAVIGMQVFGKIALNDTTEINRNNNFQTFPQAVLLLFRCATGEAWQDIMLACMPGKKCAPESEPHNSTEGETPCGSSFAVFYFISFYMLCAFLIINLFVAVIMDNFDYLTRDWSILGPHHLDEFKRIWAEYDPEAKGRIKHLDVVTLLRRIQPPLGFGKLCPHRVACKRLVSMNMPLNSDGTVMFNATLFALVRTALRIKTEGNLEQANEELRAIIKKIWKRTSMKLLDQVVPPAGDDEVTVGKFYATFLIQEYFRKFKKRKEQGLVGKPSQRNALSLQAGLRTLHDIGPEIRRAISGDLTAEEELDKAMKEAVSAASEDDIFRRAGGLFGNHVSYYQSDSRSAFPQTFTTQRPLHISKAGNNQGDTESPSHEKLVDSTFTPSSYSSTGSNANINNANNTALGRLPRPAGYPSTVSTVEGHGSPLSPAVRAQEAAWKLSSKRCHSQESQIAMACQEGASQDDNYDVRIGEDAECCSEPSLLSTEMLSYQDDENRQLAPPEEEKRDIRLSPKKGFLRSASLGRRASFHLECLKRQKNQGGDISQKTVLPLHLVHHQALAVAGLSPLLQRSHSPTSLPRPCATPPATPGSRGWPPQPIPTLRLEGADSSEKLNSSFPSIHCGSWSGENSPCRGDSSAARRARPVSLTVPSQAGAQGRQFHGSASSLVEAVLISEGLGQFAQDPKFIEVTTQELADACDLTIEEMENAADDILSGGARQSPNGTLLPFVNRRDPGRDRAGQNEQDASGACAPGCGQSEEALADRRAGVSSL
T1 sequence (P13806 27-960 partner limits assumed, other chains not shown): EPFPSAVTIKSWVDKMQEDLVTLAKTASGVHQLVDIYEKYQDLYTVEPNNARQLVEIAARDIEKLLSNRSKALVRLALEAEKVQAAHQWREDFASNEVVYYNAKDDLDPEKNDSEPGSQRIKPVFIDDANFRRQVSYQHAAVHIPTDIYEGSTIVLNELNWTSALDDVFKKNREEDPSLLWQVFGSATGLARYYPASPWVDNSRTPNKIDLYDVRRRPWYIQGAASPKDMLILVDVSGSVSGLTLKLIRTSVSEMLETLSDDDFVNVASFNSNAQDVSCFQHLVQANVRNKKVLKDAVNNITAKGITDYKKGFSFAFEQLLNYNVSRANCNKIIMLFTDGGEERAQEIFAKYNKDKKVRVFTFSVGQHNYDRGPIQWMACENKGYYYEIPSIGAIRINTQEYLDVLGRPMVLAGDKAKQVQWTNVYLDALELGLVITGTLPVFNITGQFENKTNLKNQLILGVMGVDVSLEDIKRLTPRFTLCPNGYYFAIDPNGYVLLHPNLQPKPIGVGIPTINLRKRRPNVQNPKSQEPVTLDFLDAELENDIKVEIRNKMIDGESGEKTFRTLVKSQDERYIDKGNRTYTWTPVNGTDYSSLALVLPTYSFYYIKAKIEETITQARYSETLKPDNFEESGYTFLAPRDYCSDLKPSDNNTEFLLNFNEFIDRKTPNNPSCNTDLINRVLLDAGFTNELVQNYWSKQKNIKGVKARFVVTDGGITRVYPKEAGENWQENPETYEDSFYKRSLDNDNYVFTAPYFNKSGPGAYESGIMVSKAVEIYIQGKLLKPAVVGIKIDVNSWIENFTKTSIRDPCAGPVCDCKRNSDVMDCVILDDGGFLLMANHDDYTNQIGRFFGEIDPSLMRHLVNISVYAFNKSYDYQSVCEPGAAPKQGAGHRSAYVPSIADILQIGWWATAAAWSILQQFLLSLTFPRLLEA
T1 sequence (P13806 961-1106 partner limits assumed, other chains not shown): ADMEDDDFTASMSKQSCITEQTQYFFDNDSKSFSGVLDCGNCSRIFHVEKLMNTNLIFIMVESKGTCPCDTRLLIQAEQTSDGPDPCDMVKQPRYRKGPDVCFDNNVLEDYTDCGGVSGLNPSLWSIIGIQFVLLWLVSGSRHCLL

`CCOC(=O)C1=C(C)NC2=C(C1c1cccc(Cl)c1Cl)S(=O)(=O)CCNC2` (single isomer, unassigned) [2,3-dichloro / H / ethyl, Ethyl 9-(2,3-dichlorophenyl)-1,1-dioxo-2,3,4,5,6,9-hexahydro-7-methylpyrido[2,3-f][1,4]-thiazepine-8-carboxylate]: in test [1] (setting [4]), the inhibition at 0.03 µM was found to be 25% and the inhibition at 0.3 µM is 24%.
Take `CCOC(=O)C1=C(C)NC2=C(C1c1cccc(Cl)c1Cl)S(=O)(=O)CCNC2` (single isomer, unassigned) [2,3-dichloro / H / ethyl] [Ethyl 9-(2,3-dichlorophenyl)-1,1-dioxo-2,3,4,5,6,9-hexahydro-7-methylpyrido[2,3-f][1,4]-thiazepine-8-carboxylate]: the “P#176 Aorta % INHB/μM” value in test [2] (0.01 μM) was 0% and 14%; in test [2] (0.1 μM), 0% and 67%; in test [2] (1.0 μM), 69% and 97%. The “P#176 Trach % INHB/μM” value was 2% and 47% in test [1] (0.1 μM); 54% and 96% in test [1] (2.0 μM).
Take `CCOC(=O)C1=C(C)NC2=C(C1c1cccc3nonc13)S(=O)(=O)CCNC2` (stereo not drawn) [2,3-(2,1,3 oxadiazolyl) / H / ethyl]: the inhibition at 0.1 µM in test [2] (setting [5]) was found to be 22%. Besides, the inhibition at 1 µM in test [2] (setting [6]) turned out to be 83%. Also, the inhibition at 0.3 µM in test [1] (setting [4]) is 22%. Moreover, in test [1] (setting [7]), the inhibition at 2 µM came to 68%. In addition, the IC50 (commonly the concentration that inhibits the measured activity by half) in test [3] was found to be 660 nM.
With `CCOC(=O)C1=C(C)NC2=C(C1c1cccc(Cl)c1Cl)S(=O)(=O)CCN(C(=O)OC(C)(C)C)C2` (stereo not drawn) [2,3-dichloro / BOC / ethyl, Ethyl 9-(2,3-Dichlorophenyl)-4-(t-butyloxycarbonyl) -1,1-dioxo-2,3,4,5,6,9-hexahydro-7-methylpyrido[2,3-f][1,4]thiazepine-8-carboxylate], the inhibition at 0.3 µM in test [2] (setting [8]) was determined as 4%. The inhibition at 1 µM was found to be 18% in test [2] (setting [6]) and 32% in test [3] (@ 1.0 μM test compound). Moreover, in test [1] (setting [7]), the inhibition at 2 µM came out at 0%.
In the case of `CCOC(=O)C1=C(C)NC2=C(C1c1cccc(Cl)c1Cl)S(=O)(=O)CCN(Cc1ccccc1)C2` (stereo not drawn) [2,3-dichloro / Bz / ethyl, Ethyl 4-N-Benzyl-9-(2,3-dichlorophenyl) -1,1-dioxo-2,3,4,5,6,9-hexahydro-7-methylpyrido [2,3-f][1,4]thiazepine-8-carboxylate], in test [2] (setting [6]), the inhibition at 1 µM stood at 79%. The inhibition at 0.1 µM in test [1] (setting [9]) was found to be 10%. Moreover, the inhibition at 2 µM in test [1] (setting [7]) came to 32%. In test [3], the IC50 came to 210 nM.
For the compound `CCOC(=O)C1=C(C)NC2=C(C1c1cccc(Cl)c1Cl)S(=O)(=O)c1ccccc1N(C=O)C2` (stereo not drawn) [2,3-dichloro / CHO / ethyl, Ethyl 4-(2,3-dichlorophenyl)-5,5-dioxo-10-formyl-2-methyl-1,4,10,11-tetrahydropyrido[3,2-b][1,5]-benzothiazepine-3-carboxylate], the inhibition at 0.01 µM in test [2] (setting [10]) came to 33%. Also, the inhibition at 0.1 µM in test [2] (setting [5]) was found to be 50%. Also, the inhibition at 1 µM in test [2] (setting [6]) was 74%. Besides, in test [1] (setting [4]), the inhibition at 0.01 µM is 38% and the inhibition at 0.3 µM was 35%. Further, in test [1] (setting [7]), the inhibition at 2 µM was 73%.
In the case of `CCOC(=O)C1=C(C)NC2=C(C1c1cccc(Cl)c1Cl)S(=O)(=O)CCN(CC)C2` (stereo not drawn) [2,3-dichloro / Et / ethyl, Ethyl 9-(2,3-dichlorophenyl)-1,1-dioxo-4-ethyl-2,3,4,5,6,9-hexahydro-7-methyl-pyrido[2,3-f][1,4]-thiazepine-8-carboxylate], the inhibition at 0.01 µM in test [2] (setting [10]) was determined as 19%; in test [1] (setting [4]) it was 33%. Also, in test [2] (setting [5]), the inhibition at 0.1 µM is 76%. For the same compound, the inhibition at 1 µM in test [2] (setting [6]) came to 96%; in test [1] (Canis lupus familiaris, 1.0 μM, read-out: P#176 Trach % INHB/μM), 90%. Also, the inhibition at 0.3 µM in test [1] (setting [4]) was 70%. The IC50 in test [3] turned out to be 60 nM.
Turning to `CC(=O)OCCOC(=O)C1=C(C)NC2=C(C1c1cccc(Cl)c1Cl)S(=O)(=O)CCNC2` (stereo not drawn) [2,3-dichloro / H / 2-acetoxyethyl, 2-Acetoxyethyl 9-(2,3-Dichlorophenyl) -1,1-dioxo-2,3,4,5,6,9-hexahydro-7-methylpyrido [2,3-f][1,4]thiazepine-8-carboxylate], the inhibition at 0.1 µM in test [2] (setting [5]) came out at 18%. Moreover, the inhibition at 0.3 µM in test [2] (setting [8]) turned out to be 62%. The inhibition at 1 µM in test [2] (setting [6]) amounted to 72%.
Consider `CC1=C(C(=O)OCCO)C(c2cccc(Cl)c2Cl)C2=C(CNCCS2(=O)=O)N1` (stereo not drawn) [2,3-dichloro / H / 2-hydroxyethyl], for which, in test [2] (setting [6]), the inhibition at 1 µM was determined as 0%. The inhibition at 10 µM in test [2] (setting [8]) was found to be 56%.
For `CC(=O)OCCOC(=O)C1=C(C)NC2=C(C1c1cccc(Cl)c1Cl)S(=O)(=O)CCN(C)C2` (stereo not drawn) [2,3-dichloro / Me / 2-acetoxyethyl, 2-Acetoxyethyl 9-(2,3-dichlorophenyl)-4,7-dimethyl-1,1-dioxo-2,3,4,5,6,9-hexahydropyrido[2,3-f][1,4]-thiazepine-8-carboxylate], the inhibition at 0.01 µM in test [2] (setting [10]) came out at 0%. Also, the inhibition at 0.1 µM in test [2] (setting [5]) was determined as 26%. For the same compound, the inhibition at 1 µM in test [2] (setting [6]) was found to be 89%.
As for `CC1=C(C(=O)OCCO)C(c2cccc(Cl)c2Cl)C2=C(CN(C)CCS2(=O)=O)N1` (stereo not drawn) [2,3-dichloro / Me / 2-hydroxyethyl], the inhibition at 0.1 µM in test [2] (setting [5]) was 14%. Besides, in test [2] (setting [6]), the inhibition at 1 µM is 62%. For the same compound, the inhibition at 3 µM in test [2] (Canis lupus familiaris, 3.0 μM, read-out: P#176 Aorta % INHB/μM) stood at 77%. Moreover, the inhibition at 10 µM in test [2] (setting [8]) was 95%.
For `CC1=C(C(=O)OCCN(C)Cc2ccccc2)C(c2cccc(Cl)c2Cl)C2=C(CN(C)CCS2(=O)=O)N1` (stereo not drawn) [2,3-dichloro / Me / NBzNMe-ethyl], in test [1] (setting [4]), the inhibition at 0.03 µM turned out to be 28% and the inhibition at 0.3 µM turned out to be 71%. The inhibition at 0.1 µM in test [1] (setting [9]) amounted to 54%. In test [1] (setting [7]), the inhibition at 2 µM came to 88%. The IC50 in test [3] is 150 nM.
In the case of `CCOC(=O)C1=C(C)NC2=C(C1c1cccc(Cl)c1Cl)S(=O)(=O)CCN(C(=O)CN)C2` (stereo not drawn) [2,3-dichloro / NH2 CH2 CO / ethyl], the inhibition at 1 µM in test [2] (setting [6]) turned out to be 20%. Further, the inhibition at 0.3 µM in test [1] (setting [4]) is 6%. Further, the inhibition at 2 µM in test [1] (setting [7]) turned out to be 36%.
On to `CCCCCCCN1CCS(=O)(=O)C2=C(C1)NC(C)=C(C(=O)OCC)C2c1cccc(Cl)c1Cl` (stereo not drawn) [2,3-dichloro / hept / ethyl], for which the inhibition at 0.1 µM in test [2] (setting [5]) stood at 4%. Also, the inhibition at 2 µM in test [1] (setting [7]) turned out to be 27%.
With `CCOC(=O)C1=C(C)NC2=C(C1c1ccccc1[N+](=O)[O-])S(=O)(=O)CCNC2` (stereo not drawn) [2-nitro / H / ethyl], the inhibition at 0.01 µM in test [2] (setting [10]) was found to be 27%. For the same compound, the inhibition at 0.1 µM came to 47% in test [2] (setting [5]) and 12% in test [1] (setting [9]). In addition, the inhibition at 1 µM in test [2] (setting [6]) turned out to be 77%. Further, the inhibition at 0.3 µM in test [1] (setting [4]) came to 45%. Moreover, the inhibition at 2 µM in test [1] (setting [7]) is 75%.
`CCOC(=O)C1=C(C)NC2=C(C1c1cccc([N+](=O)[O-])c1)S(=O)(=O)CCN(CC)C2` (stereo not drawn) [3-nitro / Et / ethyl, Ethyl 1,1-dioxo-4-ethyl-2,3,4,5,6,9-hexahydro-7-methyl-9-(3-nitrophenyl)-pyrido[2,3-f][1,4]-thiazepine-8-carboxylate]: in test [2] (setting [10]), the inhibition at 0.01 µM is 5%. The inhibition at 0.1 µM in test [2] (setting [5]) amounted to 73%. Further, in test [1] (setting [4]), the inhibition at 0.03 µM worked out at 50% and the inhibition at 0.3 µM is 92%. The inhibition at 0.1 µM in test [1] (setting [9]) is 73%.
